Experimental data published in patent US20220390426A1, “AIE PROBE AND APPLICATION THEREOF” (The Hong Kong University of Science and Technology, priority 2020, published 2022).

Biological target: albumin (HSA) (Homo sapiens, UniProt P02768)
Experiment: Albumin detection by ASQ fluorescence in PBS buffer
Type: binding
Conditions: [ASQ]=100 μM, λex=430 nm
Procedure: FIG. 4A The fluorescence response of ASQ to HSA. FIG. 4B Linear plot of l/l0 at 542 nm versus HSA concentrations. l0 equals to the intensity of [HSA]=0 mg/L. FIG. 4C Selectivity study of ASQ towards albumin. l0 equals the intensity of the blank sample. [Biomolecules]=1 mg/mL. [ASQ]=100 μM, λex=430 nm.
Albumin protein is the substance carrier in blood with multiple polar or nonpolar binding sites. […] There is a very good linear relationship between the fluorescence intensity and albumin concentration (FIG. 4B).

albumin (HSA), sequence (P02768 25-609): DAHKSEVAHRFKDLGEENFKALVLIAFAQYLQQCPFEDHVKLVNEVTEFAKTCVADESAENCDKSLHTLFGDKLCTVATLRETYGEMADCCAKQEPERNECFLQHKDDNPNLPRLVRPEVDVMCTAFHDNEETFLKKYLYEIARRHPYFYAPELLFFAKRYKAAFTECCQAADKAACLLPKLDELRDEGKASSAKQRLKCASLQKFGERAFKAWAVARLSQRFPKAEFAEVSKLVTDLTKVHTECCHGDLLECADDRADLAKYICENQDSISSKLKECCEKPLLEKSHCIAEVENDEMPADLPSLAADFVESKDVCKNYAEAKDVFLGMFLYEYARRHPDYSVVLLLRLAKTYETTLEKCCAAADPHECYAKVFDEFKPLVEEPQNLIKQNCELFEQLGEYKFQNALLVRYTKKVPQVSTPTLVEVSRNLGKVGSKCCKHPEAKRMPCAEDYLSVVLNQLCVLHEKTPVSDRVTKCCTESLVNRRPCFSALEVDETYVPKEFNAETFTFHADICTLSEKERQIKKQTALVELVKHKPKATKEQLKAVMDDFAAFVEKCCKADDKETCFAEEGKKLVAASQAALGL

In the case of `CN(C)c1ccc(C=Cc2nc3ccccc3[nH]c2=O)cc1` [ASQ], the “fluorescence emission response on addition of albumin” value (ASQ's PBS buffer solution) is reported as “greatly enhanced” and the “selectivity towards albumin versus other common biomolecules such as hemoglobin (emission turn-on)” value ([Biomolecules]=1 mg/mL) is reported as “good selectivity towards albumin”.
